According to US8436004B2, “Bicycloaniline derivative” (MSD K.K., priority 2007, dated 2013):
Structures can show the parent of a compound that is named as a salt.

How the values were obtained:
[1] = test system: Cdc2 (Cdk1) tyrosine 15-phosphorylation in WiDr cells; assay: Cdc2 (Cdk1) tyrosine 15-phosphorylation-inhibitory effect in gemcitabine-treated WiDr cells (ELISA); assay type: cell-based; details: Homo sapiens, gemcitabine 100 nM 24 hours, then test compound + nocodazole 8 hours, read-out: Cdc2-Y15 Phosphorylation-Inhibitory Effect (WiDr, + gemcitabine) (EC50)
From the text: Pharmacological Test 2 (Method of Determining Drug Potency with Cells (Cdc2 (Cdk1) Tyrosine 15-Phosphorylation-Inhibitory Effect))
Fetal bovine serum (FBS) was obtained from Morgate; media RPMI1640 and DMEM were from Invitrogen; camptothecin was from Sigma; gemcitabine was from Nippon Eli Lilly; nocodazole and protease inhibitor cocktail were from Sigma; rabbit anti-Cdc2 antibody and mouse anti-Cdc2 antibody were from Santa Cruz Biotechnology; rabbit anti-tyrosine 15-phosphorylated Cdc2 antibody and horseradish peroxidase-labeled anti-mouse IgG antibody were from Cell Signaling Technology; sure blue reserve TMB peroxidase substrate was from Kirkegaard and Perry Laboratories.
Human non-small cell lung cancer cells (NCI-H1299) and human colon cancer cells (WiDr) were obtained from American Type Culture Collection (ATCC).
In the method of using WiDr cells, the cells were suspended in a medium of 10% FBS-added DMEM, and the cell suspension was applied to a 96-well Nunclondelta-processed plastic plate in an amount of 2000 cells/100 μL/well, in which the cells were incubated overnight in 5% CO2-95% air at 37° C. […] Cdc2 was determined through ELISA as follows: A rabbit anti-Cdc2 antibody solution, which had been diluted 200-fold with 50 mM carbonate-bicarbonate buffer (pH 9.6), was applied to a 96-well maxisorp plastic plate in an amount of 50 μL/well, and statically kept overnight at 4° C. so as to fix the antibody on the plate. […] Then, 1 M hydrochloric acid was added to it in an amount of 100 μL/well to stop the reaction, and this was analyzed through colorimetry. Tyrosine 15-phosphorylated Cdc2 was determined through ELISA as follows: A rabbit anti-tyrosine 15-phosphorylated Cdc2 antibody solution, which had been diluted 100-fold with 50 mM carbonate-bicarbonate buffer (pH 9.6), was applied to a 96-well maxisorp plastic plate in an amount of 50 μL/well, and statically kept overnight at 4° C. so as to fix the antibody on the plate. […]

Wee1 kinase = molecular target: T1, Wee1 kinase (Homo sapiens, UniProt P30291); assay: Wee1 kinase-inhibitory effect (33P-ATP, Poly(Lys,Tyr) substrate, filter assay); assay type: biochemical; details: 10 μM ATP, 30° C., 30 minutes
T1 construct: made in house; host or cells: Sf9 insect cells (recombinant baculovirus)
T1 sequence (P30291 whole entry): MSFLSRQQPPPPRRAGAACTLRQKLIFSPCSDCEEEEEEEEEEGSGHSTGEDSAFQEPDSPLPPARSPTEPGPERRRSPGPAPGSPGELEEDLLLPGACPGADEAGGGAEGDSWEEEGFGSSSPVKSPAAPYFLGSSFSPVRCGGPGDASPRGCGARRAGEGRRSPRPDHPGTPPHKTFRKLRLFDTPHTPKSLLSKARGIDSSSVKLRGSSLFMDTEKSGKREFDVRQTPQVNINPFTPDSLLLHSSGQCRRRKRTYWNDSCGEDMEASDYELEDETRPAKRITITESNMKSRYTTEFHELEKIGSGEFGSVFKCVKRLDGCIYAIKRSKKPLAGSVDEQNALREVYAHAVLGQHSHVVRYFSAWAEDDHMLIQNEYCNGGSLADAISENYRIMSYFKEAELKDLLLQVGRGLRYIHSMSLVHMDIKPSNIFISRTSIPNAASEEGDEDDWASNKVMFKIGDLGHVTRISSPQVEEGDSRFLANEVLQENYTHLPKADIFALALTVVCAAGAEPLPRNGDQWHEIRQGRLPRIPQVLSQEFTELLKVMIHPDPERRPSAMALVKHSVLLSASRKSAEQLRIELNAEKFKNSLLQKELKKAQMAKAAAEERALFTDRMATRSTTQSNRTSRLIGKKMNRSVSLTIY
From the text: Pharmacological Test 1 (Wee1 Kinase-Inhibitory Effect)
(1) Purification of Wee1 Kinase:
A cDNA of Wee1 kinase with […] (GST) fused at the amino terminal thereof was inserted into a baculovirus expression vector to construct a recombinant baculovirus, with which cells of an insect cell line Sf9 were infected for high expression therein. The infected cells were recovered and solubilized, and then the GST-tagged Wee1 kinase protein was adsorbed by a glutathion column, and eluted from the column with glutathion, and the active fraction was desalted in a desalting column to give a purified enzyme.
(2) Determination of Wee1 Kinase Activity:
In determination of the Wee1 kinase activity, a synthetic peptide, Poly(Lys,Tyr) Hydrobromide (Lys:Tyr (4:1)) bought from Sigma was used as the substrate.
The amount of the reaction liquid was 21.1 μL; and the composition of the reaction buffer was 50 mM Tris-HCl buffer (pH 7.4)/10 mM magnesium chloride/1 mM dithiothreitol. The purified Wee1 kinase, 2.5 μg of the substrate peptide, 10 μM of non-labeled adenosine triphosphate (ATP) and 1 μCi of [γ-^33P]-labeled ATP (2500 Ci/mmol or more) were added to it, and reacted at 30° C. for 30 minutes. Next, 10 μL of 350 mM phosphate buffer was added to the reaction system to stop the reaction. The substrate peptide was adsorbed by a P81 paper filter 96-well plate, then washed a few times with 130 mM phosphate buffer, and its radioactivity was counted with a liquid scintillation counter. The [γ-^33P]-labeled ATP was bought from Amersham Bioscience.
To add the test compound to the reaction system, the compound was diluted with dimethylsulfoxide (DMSO) to prepare a series of dilutions. 1.1 μL of each dilution was added to the reaction system. As a control, 1.1 μL of DMSO was added to the reaction system.

EC50 [1] | IC50 (Wee1 kinase) | SMILES
21 nM | 5 nM | CN1Cc2cc(Nc3ncc4c(=N)n(-c5c(Cl)cccc5Cl)c(=O)[nH]c4n3)ccc2C2(CC2)C1 [Example 1, 3-(2,6-dichlorophenyl)-4-imino-7-[(2′-methyl-2′,3′-dihydro-1′H-spiro[cyclopropane-1,4′-isoquinolin]-7′-yl)amino]-3,4-dihydropyrimido[4,5-d]pyrimidin-2(1H)-one dihydrochloride]
46 nM | 5.6 nM | CN1Cc2cc(Nc3ncc4c(=N)n(-c5c(Cl)cccc5Cl)c(=O)[nH]c4n3)ccc2C(C)(C)C1 [Example 2, 3-(2,6-dichlorophenyl)-4-imino-7-{[2,4,4-trimethyl-1,2,3,4-tetrahydroisoquinolin-7-yl]amino}-3,4-dihydropyrimido[4,5-d]pyrimidin-2(1H)-one]
24 nM | 4.3 nM | CN1Cc2cc(Nc3ncc4c(=N)n(-c5c(Cl)cccc5Cl)c(=O)[nH]c4n3)ccc2C1(C)C [Example 7, 3-(2,6-dichlorophenyl)-4-imino-7-[(1,1,2-trimethyl-2,3-dihydro-1H-isoindol-5-yl)amino]-3,4-dihydropyrimido[4,5-d]pyrimidin-2(1H)-one]
